Common to all, as to test: inhibition of tumour cell growth, NCI panel, 48 h
Test [1] has as its system OVCAR-4 ovarian.
The test system of test [2] is ACHN renal.
For test [3], the system named is OVCAR-3 ovarian.
Test [4] has as its system SNB-19 CNS.
In test [5] the test system is NCI-H23 lung.
For test [6], the system named is MOLT-4 leukemia.
The test system of test [7] is SR leukemia.
Test [8] concerns UACC-257 melanoma.
The test system of test [9] is UACC-62 melanoma.
In test [10] the test system is SNB-75 CNS.

Values joined by “and” are separate entries in the source; they are usually repeats but may differ in a detail not shown here. Identical values can stand only once.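 All cell lines were grown in 96-well plates and treated with compound for 48 hours. Abbreviation: GI50, concentration required for 50% inhibition of growth. TGI denotes the concentration required for complete inhibition of growth.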 A value given as a limit tells only on which side of the number the result lay.

From PubChem BioAssay (NCI) come the findings set out here.

As for `CC(=O)OC12c3ccccc3-c3ccccc3C1C(C(=O)O)C2C(=O)O` (stereo unspecified), the TGI in test [1], in [2], in [3], in test [4], in test [5] and in [6] was greater than 10 µM in each case. The TGI in [7] and in test [8] was greater than 10 µM each time.

With `COc1ccc(C(=O)CC2=Nc3nnc(CCCCCCCc4nnc5n4C(=O)C(CC(=O)c4ccc(OC)cc4)=N5)n3C2=O)cc1`, the TGI in test [2], in test [9], in [3], in test [4], in [5] and in test [6] was greater than 100 µM each time. Moreover, the TGI in test [7], in [10] and in test [8] was greater than 100 µM throughout.

With `COC(=O)C1CC(OC(C)=O)C=C2C(=O)CCC21` (stereo unspecified), the TGI in test [1] was 45.1 µM; in test [2] it was 46.3 µM; in [9] it was 35.9 µM; in [3] it was 31.2 µM; in test [4] it was 60.3 µM; in test [6], 40 µM. Further, the TGI in [7] is 45.4 µM; in [10], 48 µM; in test [8], 37 µM.

`N#C/C(=N\Nc1ccccc1)C(=O)Nc1cc(-c2ccccc2)nn1-c1ccccc1`: the GI50 in [1] is 2.01 µM; in test [2] it was 2.98 µM; in test [9], 1.65 µM; in [3], 3.24 µM; in [4] it was 3.6 µM; in test [5], 2.73 µM. Also, the GI50 in test [6] is 3.75 µM; in test [7], 5.19 µM; in test [8] it was 2.47 µM. The TGI in test [1] is 8.95 µM; in [2], greater than 100 µM; in test [9], greater than 100 µM; in [3], 33.2 µM; in test [4], greater than 100 µM; in test [5], 60.5 µM. Besides, the TGI in test [6] was greater than 100 µM; in test [7], greater than 100 µM; in [8], 9.93 µM.

As to `CO[C@H]1C[C@](C)(O)Cc2cc3c(c(O)c21)C(=O)c1c(O)cc2c(c1C3=O)O[C@@H]1O[C@@]2(C)[C@H](O)[C@@H](N(C)C)[C@@H]1O`, the GI50 was 1.87 µM in test [1]; 0.107 µM in test [2]; 1.92 µM in [3]; 0.578 µM in test [4]; 0.0296 µM and 0.0271 µM in test [6]; 3.78 µM in test [8]. For the same compound, the TGI is 3.46 µM and 12.6 µM in test [1]; 1.31 µM and 1.9 µM in test [2]; 2.98 µM and 2.83 µM in test [9]; 4.03 µM and 8.09 µM in test [3]; 5.95 µM and 7.5 µM in [4]; 2.03 µM and 6.54 µM in test [5]. Besides, the TGI in test [6] was 0.186 µM and 0.664 µM; in test [7], 0.647 µM; in test [8], 7.55 µM and 31.6 µM.

As for `CO/N=C(\C([O-])=N\[n+]1cnn(CC(=O)OC(C)(C)C)c1)c1csc(NC(c2ccccc2)(c2ccccc2)c2ccccc2)n1`, the TGI in [1], in test [2], in [3], in [4], in test [5] and in [6] was greater than 10 µM each time. In addition, the TGI in [7], in test [10] and in test [8] was greater than 10 µM each time.

As to `O=c1oc2cc(OC/C(=N/O)c3ccc(F)cc3)ccc2c2ccccc12`, the GI50 in test [2] is 20.4 µM; in test [9], 17.6 µM; in test [3], 17.6 µM; in [4], 21.8 µM; in test [5], 19.1 µM; in test [6], 16.7 µM. Moreover, the GI50 in [7] was 26.6 µM; in [10], 23.7 µM; in test [8], 22.9 µM. In addition, the TGI in test [2] was found to be 41.6 µM; in test [9] it was 33 µM; in test [3] it was 40.6 µM; in [4], 46.3 µM; in test [5], 34.2 µM; in test [6] it was 42.7 µM. The TGI in test [7] turned out to be 69.2 µM; in [10], 43.9 µM; in test [8], 39.4 µM.

Regarding `O=C(Nc1ccccc1-c1nn(CN2CCNCC2)c(=S)n(CN2CCNCC2)c1=O)C(F)(F)F`, the TGI was determined as 35.2 µM in test [1]; 63.9 µM in [2]; 32.5 µM in [9]; 49.9 µM in test [3]; 48.1 µM in test [4]; 32.6 µM in test [5]. The TGI in [6] is greater than 100 µM; in test [10], 52.9 µM; in test [8], 31 µM.

On to `O=C1CNC(=O)c2[nH]cnc2N1`, for which the TGI in test [1], in [2], in test [9], in test [3], in [4] and in test [5] was greater than 100 µM in each case. In addition, the TGI in test [6], in test [7] and in [10] was greater than 100 µM each time.

For `Cc1[nH]c(N)nc(=S)c1CCC(=O)O`, the TGI in test [1], in [2], in [9], in [3], in [4] and in test [5] was greater than 100 µM in each case. For the same compound, the TGI in [6], in [7] and in [8] was greater than 100 µM each time.

For `COc1ccc2c(c1OC)C(C(Cl)(Cl)Cl)N1CCc3cc4c(cc3C1=C2)OCO4` (stereo unspecified), the TGI in [1] was 69 µM; in test [2], 65.1 µM; in [9] it was 30.5 µM; in [3], 65.8 µM; in [4] it was greater than 100 µM; in test [5] it was greater than 100 µM. Moreover, the TGI is 80.9 µM in test [6], greater than 100 µM in test [10] and 62.9 µM in test [8].

As to `CC1(C)OC(=O)C(C#N)=C1C[n+]1ccccc1`, the TGI in test [1], in [2], in [3], in test [4], in [5] and in [6] was greater than 10 µM each time. In addition, the TGI in [7], in [10] and in [8] was greater than 10 µM throughout.
